According to patent US7390910B2, “Compounds for treating tumors” (priority 2003, dated 2008):
Marks after values point to notes of the source that are not given here.

Assays:
[1] = test system: KB cells; assay: cells; assay type: cell-based; details: for IC50: 3 days, SRB; for inhibition at 3 µM: 3000 nM
Procedure: (§1) Cell Survival Assay: Standard Pharmacological Test Procedure. […] Compounds are incubated with cells for 3 days.

[2] = test system: KB85; assay: cells; assay type: cell-based; details: for IC50: 3 days, SRB; for inhibition at 3 µM: 3000 nM
Procedure: as §1

[3] = test system: KBV1; assay: cells; assay type: cell-based; details: for IC50: 3 days, SRB; for inhibition at 3 µM: KB-V1, 3000 nM
Procedure: as §1

[4] = test system: bovine microtubule-associated protein (MAP)-rich tubulin; assay type: biochemical
Procedure: Tubulin Polymerization Assays. For in vitro tubulin polymerization assays, bovine microtubule-associated protein (MAP)-rich tubulin, PEM buffer [80 mM Na-PIPES (pH 6.9), 1 mM MgCl2, and 1 mM EGTA], and GTP are purchased from Cytoskeleton (Denver, Colo.). MAP-rich tubulin (final concentration 1.5 mg/ml) is dissolved in cold PEM buffer containing 1 mM GTP (GPEM) and centrifuged at 12,000×g for 10 min at 4° C. The tubulin solution (100 μl/well) is added rapidly to wells of a low-volume, 96-well plate already containing duplicate aliquots (10 μl) of test compounds in GPEM. […] Control wells contained the same final concentration of DMSO (0.3%). After initiation of the reaction, absorbance at 340 nm is measured every minute for 60 min at 24° C. using a SpectraMax Plus plate reader (Molecular Devices, Sunnyvale, Calif.).

Molecule | IC50 ([1]; Homo sapiens, KB, 72 h) [nM] | IC50 ([2]; 72 h) [nM] | IC50 ([3]; Homo sapiens, KB-V1, 72 h) [nM] | Tubulin Polym. % inhibition at 0.3 uM [4] | inhibition at 3 µM ([3]; Homo sapiens) [%] | inhibition at 3 µM ([1]; Homo sapiens, 72 h) [%] | inhibition at 3 µM [2] [%] | IC50 [1] [nM] | IC50 [2] [nM] | IC50 [3] [nM] | Tubulin Polym. % inhibition at 0.5 uM ([4]; 0.5 uM)
CN[C@H](C(=O)N[C@H](C(=O)N(C)[C@H](/C=C(\C)C(=O)N1CCOCC1)C(C)C)C(C)(C)C)C(C)(C)c1cccc(C)c1 [Example 1, N,β,β,3-Tetramethyl-L-phenylalanyl-N^1-[(1S,2E)-1-isopropyl-3-methyl-4-morpholin-4-yl-4-oxobut-2-enyl]-N^1,3-dimethyl-L-valinamide] | 19.5 | 56 | 1510 | 79% | – | – | – | – | – | – | –
CN[C@H](C(=O)N[C@H](C(=O)N(C)[C@H](/C=C(\C)C(=O)O)C(C)C)C(C)(C)C)c1ccccc1 [Example 57, (2E,4S)-2,5-dimethyl-4-(methyl{3-methyl-N-[(2S)-2-(methylamino)-2-phenylethanoyl]-L-valyl}amino)-2-hexenoic acid] | 1760 | 2610 | – | 75% | 7 | – | – | – | – | – | –
CN[C@H](C(=O)N[C@H](C(=O)N(C)[C@H](/C=C(\C)C(=O)N1CCC[C@H]1C(=O)O)C(C)C)C(C)(C)C)C(C)(C)c1ccc(C)c(C)c1 [Example 18, N,β,β,3,4-Pentamethyl-L-phenylalanyl-N^1-{(1S,2E)-4-[(2S)-2-carboxypyrrolidin-1-yl]-1-isopropyl-3-methyl-4-oxobut-2-enyl}-N^1,3-dimethyl-L-valinamide] | 74 | 519 | – | 76% | 6 | – | – | – | – | – | –
CN[C@H](C(=O)N[C@H](C(=O)N(C)[C@H](/C=C1/C(=O)NC(=O)N1C)C(C)C)C(C)(C)C)C(C)(C)c1ccccc1 [Example 89, N,β,β-trimethyl-L-phenylalanyl-N^1,3-dimethyl-N^1-{(1S)-2-methyl-1-[(Z)-(3-methyl-2,5-dioxoimidazolidin-4-ylidene)methyl]propyl}-L-valinamide] | 5.1 | 9.9 | 230 | 95% | – | – | – | – | – | – | –
CCOS(=O)(=O)/C(C)=C/[C@H](C(C)C)N(C)C(=O)[C@@H](NC(=O)[C@@H](NC)C(C)(C)c1ccccc1)C(C)(C)C [Example 65, N,β,β-trimethyl-L-phenylalanyl-N^1-[(1S,2E)-3-(ethoxysulfonyl)-1-isopropylbut-2-enyl]-N^1,3-dimethyl-L-valinamide] | – | – | – | 44% | 0 | 11 | 1 | – | – | – | –
CN[C@H](C(=O)N[C@H](C(=O)N(C)[C@H](/C=C(\C)C(=O)N1CCN(Cc2ccccc2)CC1)C(C)C)C(C)(C)C)C(C)(C)c1cc(C)cc(C)c1 [Example 14, N,β,β,3,5-Pentamethyl-L-phenylalanyl-N^1-[(1S,2E)-4-(4-benzylpiperazin-1-yl)-1-isopropyl-3-methyl-4-oxobut-2-enyl]-N^1,3-dimethyl-L-valinamide] | 45 | 135 | 1650 | 51(5) % | – | – | – | – | – | – | –
CN[C@H](C(=O)N[C@H](C(=O)N(C)[C@H](/C=C/P(=O)(O)OC)C(C)C)C(C)(C)C)C(C)(C)c1ccccc1 [Example 69, N,β,β-trimethyl-L-phenylalanyl-N^1-{(1S,2E)-3-[hydroxy(methoxy)phosphoryl]-1-isopropylprop-2-enyl}-N^1,3-dimethyl-L-valinamide] | – | – | – | 59% | 3 | 0 | 0 | – | – | – | –
3-hydroxy-N-methyl-L-valyl-N^1-[(1S,2E)-4-ethoxy-1-isopropyl-3-methyl-4-oxo-2-butenyl]-N^1,3-dimethyl-L-valinamide and 3-hydroxy-N,N-dimethyl-L-valyl-N^1-[(1S,2E)-4-ethoxy-1-isopropyl-3-methyl-4-oxo-2-butenyl]-N^1,3-dimethyl-L-valinamide [Example 61] | – | – | – | – | – | – | – | 151 | 293 | > 3000 | 40*** %
CN[C@H](C(=O)N[C@H](C(=O)N(C)[C@H](/C=C(\C)C(=O)N1CCN(C)CC1)C(C)C)C(C)(C)C)C(C)(C)c1cc(C)cc(C)c1 [Example 8, N,β,β,3,5-Pentamethyl-L-phenylalanyl-N^1-[(1S,2E)-1-isopropyl-3-methyl-4-(4-methylpiperazin-1-yl)-4-oxobut-2-enyl]-N^1,3-dimethyl-L-valinamide] | 35 | 56 | 1620 | 68% | – | – | – | – | – | – | –
CN[C@H](C(=O)N[C@H](C(=O)N(C)[C@H](/C=C(\C)C(=O)N1CCC[C@@H]1C(=O)OC)C(C)C)C(C)(C)C)C(C)(C)c1ccccc1 [Example 41, N,β,β-trimethyl-L-phenylalanyl-N^1-{(1S,2E)-4-[(2R)-2-(methoxycarbonyl)pyrrolidin-1-yl]-1-isopropyl-3-methyl-4-oxobut-2-enyl}-N^1,3-dimethyl-L-valinamide] | 16 | 51 | 1100 | 96% | – | – | – | – | – | – | –
CN[C@H](C(=O)N[C@H](C(=O)N(C)[C@H](/C=C(\C)C(=O)N1C[C@H](O)C[C@H]1C(=O)O)C(C)C)C(C)(C)C)C(C)(C)c1ccccc1 [Example 42, N,β,β-trimethyl-L-phenylalanyl-N^1-{(1S,2E)-4-[(2S,4R)-2-carboxy-4-hydroxypyrrolidin-1-yl]-1-isopropyl-3-methyl-4-oxobut-2-enyl}-N^1,3-dimethyl-L-valinamide] | 184 | 1850 | – | 96% | 0 | – | – | – | – | – | –
CN[C@H](C(=O)N[C@H](C(=O)N(C)[C@H](/C=C/P(=O)(O)O)C(C)C)C(C)(C)C)C(C)(C)c1ccccc1 [Example 70, N,β,β-trimethyl-L-phenylalanyl-N^1-[(1S,2E)-1-isopropyl-3-phosphonoprop-2-enyl]N^1,3-dimethyl-L-valinamide] | – | – | – | 69% | 3 | 0 | 0 | – | – | – | –
CN[C@H](C(=O)N[C@H](C(=O)N(C)[C@H](/C=C(\C)C(=O)c1ccccc1)C(C)C)C(C)(C)C)C(C)(C)c1ccccc1 [Example 80, N,β,β-trimethyl-L-phenylalanyl-N-1-[(1S,2E)-1-isopropyl-3-methyl-4-oxo-4-phenylbut-2-enyl]-N-1,3-dimethyl-L-valinamide] | – | – | – | 70% | – | – | – | 725 | 1330 | 1800 | –
C/C(=C\[C@H](C(C)C)N(C)C(=O)[C@@H](NC(=O)[C@@H](N(C)C)C(C)(C)c1ccccc1)C(C)(C)C)C(=O)N1CCN(Cc2ccccc2)CC1 [Example 15, N,β,β,β-Tetramethyl-L-phenylalanyl-N^1[(1S,2E)-4-(4-benzylpiperazin-1-yl)-1-isopropyl-3-methyl-4-oxobut-2-enyl]-N^1,3-dimethyl-L-valinamide] | – | – | – | 77% | – | – | – | 7.2 | 18 | 354 | –
CN[C@H](C(=O)N[C@H](C(=O)N(C)[C@H](/C=C(\C)C(=O)N1CCC[C@H]1[C@H](OC)[C@@H](C)C(=O)N[C@@H](Cc1ccccc1)c1nccs1)C(C)C)C(C)(C)C)C(C)(C)C1CCCCC1 [Example 44, 3-cyclohexyl-N-methyl-L-valyl-N^1-{(1S,2E)-1-isopropyl-4-[(2S)-2-((1R,2R)-1methoxy-2-methyl-3-oxo-3-{[(1S)-2-phenyl-1-(1,3-thiazol-2-yl)ethyl]amino}propyl)pyrrolidin-1-yl]-3-methyl-4-oxobut-2-enyl}-N^1,3-dimethyl-L-valinamide] | 1.5 | 6.2 | 475 | 83% | – | – | – | – | – | – | –
